Target: T1, CAMK2B (CaMKII beta) (Homo sapiens, UniProt Q13554)
T1 construct: purchased Thermo Fisher Scientific (Life Technologies) SelectScreen
Test: SelectScreen Z'LYTE
Format: biochemical
Outline: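 SelectScreen broad panel; activity (Z'LYTE, Adapta) plus binding formats. ATP: Km app for CSF1R Z'LYTE; 10 for CAMK1 Adapta. Readout = % per kinase.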

T1 sequence (Q13554 whole entry): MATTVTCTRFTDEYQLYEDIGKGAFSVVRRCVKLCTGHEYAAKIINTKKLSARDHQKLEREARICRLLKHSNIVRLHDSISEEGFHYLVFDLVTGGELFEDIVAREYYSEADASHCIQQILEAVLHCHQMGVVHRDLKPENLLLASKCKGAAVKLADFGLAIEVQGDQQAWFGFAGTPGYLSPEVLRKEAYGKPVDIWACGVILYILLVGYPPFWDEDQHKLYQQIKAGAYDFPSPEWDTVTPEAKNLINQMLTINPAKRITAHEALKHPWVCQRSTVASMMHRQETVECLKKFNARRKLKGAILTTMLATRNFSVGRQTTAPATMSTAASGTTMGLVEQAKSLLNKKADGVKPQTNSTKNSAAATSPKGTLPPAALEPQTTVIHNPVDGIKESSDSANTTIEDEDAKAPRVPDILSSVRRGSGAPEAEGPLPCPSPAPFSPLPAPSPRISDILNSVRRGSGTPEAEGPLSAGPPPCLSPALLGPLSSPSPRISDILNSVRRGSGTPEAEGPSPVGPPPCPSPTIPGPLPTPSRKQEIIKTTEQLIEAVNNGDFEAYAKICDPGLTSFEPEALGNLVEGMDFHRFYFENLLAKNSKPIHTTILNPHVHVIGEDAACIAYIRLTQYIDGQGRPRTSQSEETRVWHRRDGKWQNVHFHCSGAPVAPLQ

Compound: CN(C(=O)CN1CCOCC1)c1ccc2sc3c(-c4cccc5c(=O)cc(N6CC7CCC(C6)O7)oc45)cccc3c2c1 [NU5455]
- inhibition at 1 µM: 0.7%

Reference: publication PMC6934184, “Selective DNA-PKcs inhibition extends the therapeutic index of localized radiotherapy and chemotherapy” (The Journal of Clinical Investigation, 2019)
